Source: US12274684B2, “Treatment of vasculopathy with prostacyclin and mesenchymal stem cells” (United Therapeutics Corporation, priority 2013, dated 2025)

Tested on: human bone marrow MSC
Test: Microarray gene expression analysis of MSC (Illumina Human HT12 Expression BeadChip)
Type: cell-based
Details: Tre(+) 250 μg/mL, 24 h
Protocol: Human bone marrow MSC were expanded and seeded into six (6) T225 flasks using standard growth medium (Table 1). At 95-99% confluency, cells were thoroughly washed with PBS. Three (3) flasks were replenished with basal media containing 250 μg/mL treprostinil, (+)Tre, and the remaining three (3) flasks were replenished with unsupplemented basal media, (−)Tre. After 24 hours of culture, representative images were captured from (+) Tre and (−) Tre cultures. Conditioned media was collected from each replicate, divided into two samples of appropriate volumes, and analyzed separately for: 1) secreted proteins (Myriad RBM InflammationMAP® 1.0) and 2) exosome RNA content. Cells were lysed directly from culture flasks, processed for total RNA isolation, and analyzed for gene expression by microarray (Illumina Human HT12 Expression BeadChip). Microarray gene expression analysis was also performed on MSC from cultures without (−) or with (+) 250 ug/mL treprostinil. Three (3) biological replicates from each condition were analyzed. Of the 77,612 sequences identified among all replicates, only 24,273 were detected above the arbitrary background of 50 counts. 2,984 RNA sequences were unique to Tre(−) cultures, while 1,781 RNA sequences were unique to Tre(+) cultures (panel A). Genes detected in both conditions were further analyzed for differential expression (panel). […] Genes that are expressed only in Tre(−) cultures (that is to say, completely turned off in the Tre(+) cultures) are shown in Table 5.

## CCCCC[C@H](O)CC[C@@H]1[C@H]2Cc3cccc(OCC(=O)O)c3C[C@H]2C[C@H]1O [treprostinil]
Tre(−) AVG 543
  CLDN11 (NM_005602) expression, AVG: 13 counts
Tre(−) AVG 559
  FAM198B (NM_001128424) expression, AVG: 15 counts
Tre(−) AVG 613
  SLC7A8 (NM_182728) expression, AVG: 43 counts
Tre(−) AVG 625
  ASPM (NM_018136) expression, AVG: 26 counts
Tre(−) AVG 631
  CPA4 (NM_016352) expression, AVG: 53 counts
Tre(−) AVG 644
  CELF1 (NM_001172640) expression, AVG: 59 counts
Tre(−) AVG 648
  TCF12 (NM_207040) expression, AVG: 40 counts
Tre(−) AVG 652
  SCN2A (NM_021007) expression, AVG: 20 counts
Tre(−) AVG 658
  ASPH (NM_001164754) expression, AVG: 37 counts
Tre(−) AVG 661
  CIT (NM_001206999) expression, AVG: 9 counts
Tre(−) AVG 664
  VEGFA (NM_001171626) expression, AVG: 7603 counts
Tre(−) AVG 669
  ANLN (NM_018685) expression, AVG: 57 counts
Tre(−) AVG 731
  ST8SIA1 (NM_003034) expression, AVG: 45 counts
  TPM1 (NM_001018007) expression, AVG: 36 counts
Tre(−) AVG 733
  FAM84A (NM_145175) expression, AVG: 45 counts
  SPATA20 (NM_022827) expression, AVG: 15 counts
Tre(−) AVG 744
  PRRT2 (NM_145239) expression, AVG: 36 counts
Tre(−) AVG 746
  LRRC17 (NM_001031692) expression, AVG: 22 counts
Tre(−) AVG 780
  ANGPT1 (NM_001146) expression, AVG: 53 counts
Tre(−) AVG 811
  ANK3 (NM_001204403) expression, AVG: 57 counts
Tre(−) AVG 813
  SNX14 (NM_153816) expression, AVG: 18 counts
Tre(−) AVG 814
  RCAN1 (NM_203418) expression, AVG: 8908 counts
Tre(−) AVG 816
  OLFML1 (NM_198474) expression, AVG (Table 5): 42 counts
Tre(−) AVG 857
  RASA4 (NM_006989) expression, AVG: 11 counts
Tre(−) AVG 883
  GDF5 (NM_000557) expression, AVG: 71 counts
Tre(−) AVG 886
  MAP1B (NM_005909) expression, AVG: 42 counts
Tre(−) AVG 918
  C13orf33 (NM_032849) expression, AVG: 19296 counts
Tre(−) AVG 982
  MEOX2 (NM_005924) expression, AVG: 31 counts
Tre(−) AVG 991
  MYLK (NM_053025) expression, AVG: 0 counts
Tre(−) AVG 1036
  SLC14A1 (NM_015865) expression, AVG (Table 5): 19 counts
Tre(−) AVG 1052
  FLG (NM_002016) expression, AVG: 28 counts
Tre(−) AVG 1150
  ARPC4 (NM_001024960) expression, AVG: 12 counts
Tre(−) AVG 1218
  RCAN2 (NM_001251974) expression, AVG: 105 counts
Tre(−) AVG 1272
  EPB41L2 (NM_001199389) expression, AVG: 113 counts
Tre(−) AVG 1281
  SLC2A12 (NM_145176) expression, AVG: 105 counts
Tre(−) AVG 1283
  MEST (NM_002402) expression, AVG: 85 counts
Tre(−) AVG 1299
  METTL7A (NM_014033) expression, AVG: 109 counts
Tre(−) AVG 1312
  S100A4 (NM_002961) expression, AVG: 125 counts
Tre(−) AVG 1316
  RBFOX2 (NM_001031695) expression, AVG: 10 counts
Tre(−) AVG 1459
  ACTN1 (NM_001130005) expression, AVG: 115 counts
Tre(−) AVG 1465
  OLFML2B (NM_015441) expression, AVG: 70 counts
Tre(−) AVG 1474
  PRELP (NM_002725) expression, AVG: 114 counts
Tre(−) AVG 1569
  COL21A1 (NM_030820) expression, AVG: 57 counts
Tre(−) AVG 1621
  SLC14A1 (NM_015865) expression, AVG (Table 4): 88 counts
Tre(−) AVG 1685
  DDAH1 (NM_001134445) expression, AVG: 133 counts
Tre(−) AVG 1722
  LMOD1 (NM_012134) expression, AVG: 65 counts
Tre(−) AVG 1734
  OLFML1 (NM_198474) expression, AVG (Table 4): 140 counts
Tre(−) AVG 1759
  MXRA5 (NM_015419) expression, AVG: 54 counts
Tre(−) AVG 1932
  DKFZp547J0510 (CDNA FLJ42650 fis, clone BRACE3027478) expression, AVG: 148 counts
Tre(−) AVG 1976
  PLIN2 (NM_001122) expression, AVG: 92927 counts
Tre(−) AVG 2551
  SYNPO2 (NM_001128933) expression, AVG: 104 counts
Tre(−) AVG 2719
  ASPH (NM_004318) expression, AVG: 1 counts
Tre(−) AVG 2936
  SREBF1 (NM_001005291) expression, AVG: 12 counts
Tre(−) AVG 3190
  SLC3A2 (NM_001013251) expression, AVG: 33526 counts
Tre(−) AVG 3361
  PDE5A (NM_033430) expression, AVG: 222 counts
Tre(−) AVG 3552
  MEST (NM_177525) expression, AVG: 298 counts
Tre(−) AVG 4013
  RND3 (NM_005168) expression, AVG: 51756 counts
Tre(−) AVG 5533
  ISLR (NM_005545) expression, AVG: 548 counts
Tre(−) AVG 9809
  PALLD (NM_001166109) expression, AVG: 753 counts
Tre(−) AVG 10574
  CXCL12 (NM_199168) expression, AVG: 671 counts
Tre(−) AVG 23012
  CTGF (NM_001901) expression, AVG: 741 counts
Tre(−) AVG 54326
  COL6A3 (NM_004369) expression, AVG: 4635 counts
